Results reported in doi:10.1101/2025.11.04.686469, “Discovery of Host-Directed Small Molecules with Broad Anti-Leishmanial Efficacy” (bioRxiv, 2025).
≈ marks a conversion by molar mass, not a printed value. Where two headings read alike, the source gives them in different places.

How the values were obtained:
[1] = system: intracellular L. mexicana amastigotes; test: microbe, parasite or virus in culture; assay type: cell-based, Leishmania mexicana; settings: Leishmania mexicana, Macrophage, bone marrow derived macrophages, Giemsa staining
Procedure: (§1) Bone marrow derived macrophages (BMDMs) were isolated from BALB/c mice and cultured as previously described. Briefly, bone marrow was harvested from long bones of mice and the isolated cells were seeded at a concentration of 2 x 10^6 cells/mL in petri dishes with RPMI media supplemented with 10% FBS, 1% Penn-Strep and 10% L929 conditioned media (LCM). Completely differentiated BMDMs are obtained after 7 days of culture with media change every 2 days. Harvested cells were seeded onto 10 mm glass cover slips at 5 x 10^5 cells/ well of a 24 well plate in DMEM media (without LCM) and allowed to adhere overnight. BMDM cells are then infected overnight with LV82 L. donovani or L. mexicana (NR-51210) at a multiplicity of infection of 10. After infection, cells were washed three times with fresh media to remove extracellular promastigotes and treated with compounds for a 72-hour incubation. BMDM cells were then washed with phosphate buffered saline, fixed with ice-cold methanol, and stained with Giemsa (5% v/v in water). The cover slips with stained cells are mounted onto glass slides and imaged on EVOS XL (100X, Thermo Fisher Scientific). Leishmania amastigotes per 100 macrophages were determined in a blinded manner.

[2] = system: extracellular L. mexicana promastigotes; test: Effect of compounds on promastigote viability (resazurin assay); assay type: cell-based, Leishmania mexicana; settings: Leishmania mexicana, 72-hour incubation
Procedure: (§2) The effect of compounds on extracellular promastigotes was evaluated using a resazurin-based assay as described previously. In short, late log phase Leishmania promastigotes were seeded in a 96 well plate at 1 x 10^5 parasites per well and treated with drugs (0.5 – 200 μM) for 72 hours at 25°C. Ten microliters of resazurin (0.02% w/v) were added to the treated parasites to achieve a final concentration of 0.002% w/v and incubated for 24 hours. Viability of the promastigotes was assessed by fluorescence (excitation 544 nm, emission 590 nm, SpectraMax M2, Molecular Devices).

[3] = system: extracellular L. donovani promastigotes; test: as above; assay type: cell-based, Leishmania donovani; settings: Leishmania donovani, 72-hour incubation
Procedure: as §2

[4] = Effect of compounds on host cell viability (MTT); assay type: cell-based; settings: human
Outline: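 THP-1 cells were differentiated with 150 nM PMA for 72 h, then exposed to compounds at 1–50 μM for 24 h; selected compounds were also run at 1–300 μM for 72 h. MTT at 0.5 mg/mL was added for 2 h at 37 °C, and formazan absorbance was read at 560 nm minus 670 nm.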

[5] = system: intracellular L. donovani amastigotes; test: Image-based (Giemsa staining) evaluation of intracellular anti-leishmanial activity in bone marrow derived macrophages; assay type: cell-based, Leishmania donovani; settings: Leishmania donovani, Macrophage
Procedure: as §1, with “Briefly, bone marrow was harvested from long bones of mice and the isolated cells were seeded at a concentration of 2 x 10^6 cells/mL in petri dishes with RPMI media supplemented with 10% FBS, 1% Penn-Strep and 10% L929 conditioned media (LCM).” left out, “BMDM cells are then infected overnight with LV82 L. donovani or L. mexicana (NR-51210) at a multiplicity of infection of 10.” left out

[6] = system: intracellular L. donovani in WT and Lys K/O BMDMs; test: 197 target validation: Giemsa staining in BMDMs from wild-type and lysozyme knockout mice; assay type: cell-based, Leishmania donovani; settings: WT vs Lys K/O BMDMs
Description: B6.129P2-Lyz2^tm1(cre)Ifo/J mice[23] (stock #004781, herein termed ‘Lys K/O’) were obtained from Jackson Laboratory. This strain has a nuclear-localized Cre recombinase inserted into the first coding ATG of the lysozyme 2 gene (Lyz2) which eliminates endogenous Lyz2 gene function. Wildtype C57BL6/J mice (stock #000664) were obtained as a control.
Bone marrow derived macrophages (BMDMs) were isolated from both mice and cultured as described above in “Image-based Evaluation of Intracellular Anti-Leishmanial Activity”. BMDMs were seeded onto glass cover slips, infected with LV82 L. donovani at a multiplicity of infection of 1:10. Cells were washed to remove extracellular promastigotes and treated with compounds (197, amphotericin B) for a 72-hour incubation. BMDM cells were then washed with phosphate buffered saline, fixed with ice-cold methanol, and stained with Giemsa (5% v/v in water). The cover slips with stained cells are mounted onto glass slides and imaged on EVOS XL (100X, Thermo Fisher Scientific). Leishmania amastigotes per 100 macrophages were determined in a blinded manner.

[7] = system: intracellular L. donovani amastigotes; test: Luminescent-based evaluation of intracellular anti-leishmanial activity in THP-1 macrophages; assay type: cell-based, Leishmania donovani
Outline: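 PMA-differentiated THP-1 macrophages (150 nM, 72 h) were infected 18 h with firefly luciferase-expressing L. donovani LV82 promastigotes, then washed. Infected cells were treated with compounds at 0.1-10 μM for 72 h. Surviving intracellular amastigotes were quantified by firefly luciferase luminescence after cell lysis and 10 min substrate incubation at room temperature.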

[8] = resazurin assay (Table 3), read-out: L. donovani Extracellular promastigotes MIC50
[9] = resazurin assay, read-out: Extracellular L. donovani promastigotes MIC50
[10] = 72 h, Giemsa staining, 72-hour incubation, read-out: Intracellular L. donovani amastigotes IC50
[11] = Giemsa staining (Table 3), read-out: L. donovani Intracellular amastigotes IC50

SMILES	IC50 [1] [µM]	MIC50 [2] [µM]	MIC50 [3, 8] [µM]	MIC50 [3, 9] [µM]	CC50 at 24 h [4] [µM]	CC50 at 72 h [4] [µM]	IC50 [5, 10] [µM]	IC50 [5, 11] [µM]	anti-leishmanial activity in Lys K/O BMDMs [6]	IC50 ([7]; Leishmania donovani, THP-1, THP1 macrophages, luminescence assay, 72 hours of treatment, read-out: Intracellular L. donovani amastigotes Lum IC50) [µM]	Selectivity 24h LC50 / Lum IC50 ([7]; host-directed effect vs cytotoxicity)
NCC(=O)Nc1ccc(-n2nc(C(F)(F)F)cc2-c2ccc3c(ccc4ccccc43)c2)cc1 [AR-12, reference compound]	1.5	15.1 (≈ 6.95 µg/mL)	2.2 (≈ 1.01 µg/mL)	2.2 (≈ 1.01 µg/mL)	13.3	8.6	2.2	2.2			
C[C@@H]1[C@H](O)[C@@H](C)/C=C/C=C/C=C/C=C/C=C/C=C/C=C/[C@H](O[C@@H]2O[C@H](C)[C@@H](O)[C@H](N)[C@@H]2O)C[C@@H]2O[C@](O)(C[C@@H](O)C[C@@H](O)[C@H](O)CC[C@@H](O)C[C@@H](O)CC(=O)O[C@H]1C)C[C@H](O)[C@H]2C(=O)O [Amphotericin B, reference compound]									retained its anti-leishmanial activity		
N#Cc1ccc(CNCC(=O)Nc2ccc(-n3nc(C(F)(F)F)cc3C3CCCCC3)cc2)cc1 [Compound 354]	3.5	30.7 (≈ 14.8 µg/mL)	22.1 (≈ 10.6 µg/mL)	22.1 (≈ 10.6 µg/mL)	22	20.2	0.4	0.4		0.5	44.9
